Holding throughout (type): cell-based
Assay [1] relates to intracellular Ca2+ in human platelets. Kind of assay: Cytosolic Ca2+ measurement in fluo-3-loaded platelets. Particulars: 10 μM STO-609, 0.1 U/ml thrombin, 1 mM extracellular Ca2+. On the procedure: Platelets pelleted from the platelet-rich plasma were suspended in Ca^2+-free modified Tyrode's buffer and then incubated with 3 μM flou-3/acetoxymethyl ester (Santa Cruz Biotechnology) at 37° C. for 30 min. Probenecid 2.5 mM (Sigma-Aldrich) was added to the buffer throughout the experiments to prevent leakage of the dye. After 2 washings, fluo-3-loaded platelets were suspended in modified Tyrode's buffer at a concentration of 2 10^7 platelets/ml. They were then pre-incubated with 10 μM STO-609 in the presence of 1 mM extracellular Ca^2+ with stirring at 37° C. for 2 min before the addition of thrombin (0.1 U/ml). Fluorescence (excitation 505 nm, emission 530 nm) was measured with a spectrophotometer (AMINCO SPF500). Ca^2+ concentration as estimated as follows: Kd* (F−Fmin)/(Fmax−Fmin), where the Kd of Fluo-3 is ([…] at 37° C.). The minimal fluorescence (Fmin) is the fluorescence in the absence of Ca^2+ and Fmax is the fluorescence determined with ionomycin 1 μM.

The test system of assay [2] is P-selectin (CD62P) on human platelet surface. Description: Flow cytometry, P-selectin (CD62P) exposure, α-granule release. Particulars: 0.025 U/ml thrombin, 10 μM STO-609. On the procedure: Flow cytometric analysis was performed on a FACScan (Becton Dickinson). Washed human platelets (2·10^5 platelets/μl) were pre-incubated with DMSO/STO-609 for 2 min and then treated with or without thrombin (0.025 U/ml) in the presence of excessive amounts of FITC-conjugated monoclonal antibody (anti-CD62P (BD Biosciences) or PAC-1 (BD Biosciences)) at room temperature. The samples were then fixed at 4° C. for 30 min with 2% paraformaldehyde. The levels of P-selectin expression and PAC1 binding were expressed as the percentages of cells positive for anti-CD62P and PAC-1, respectively. The negative cut-off for each antibody was set using resting platelets that gave less than 5% of cells positive for binding of anti-CD62P or PAC-1. In addition, the effect of STO-609 on α-granule release was determined by measuring the exposure on platelet surface of P-selectin (CD62P).

The subject of another assay is washed human platelets. Kind of assay: Platelet aggregation, light transmission (Chrono-Log Aggregometer). As to the method: Washed human platelets (used in in vitro studies). Platelets were obtained from adult healthy volunteers in accordance with the Ethics Commission of our institution (Commission d'Ethique Biomédicale Hospitalo-Facultaire, Université catholique de Louvain). Whole blood was collected with butterfly needle 21G into Sodium Citrate 1:10 solution (S-monovette). Platelet-rich plasma (PRP) was obtained by 15 min centrifugation at 330 g. The platelets pellet was then washed in Tyrode modified buffer (135 mM NaCl, 12 mM NaHCO3, 1 mM Sodium Citrate, 2.9 mM KCl, 0.3 mM Na2HPO4, 1 mM MgCl2, 5 mM D-glucose, 10 mM Hepes, 0.35% bovine serum albumin (BSA), pH 7.4 at 37° C.) and resuspended to a density of 2.5 10^5 platelets/μl for the measurement of intracellular Ca^2+ or platelet aggregation. For Western Blot analysis, PRP with eptifibatide 4 μg/ml (Integriline, GlaxoSmithKline) and ectonucleotidase apyrase (grade I) 0.5 U/ml was layered over a density barrier of iodixanol (Optiprep®) that allowed the erythrocytes and leucocytes to pellet during centrifugation at 350 g for 15 min. The platelets, because of their small size, sediment much more slowly. After centrifugation at 800 g for 10 min, the resulting pellet was resuspended to a density of 2·10^5 platelets/μl in Tyrode modified buffer before treatment and lysis of samples.
Light transmission during thrombin-induced platelet aggregation in human and murine PRP was recorded with a Chrono-Log Aggregometer at 37° C., under stirring condition (1200 crpm). The platelet suspension was incubated with dimethyl sulfoxide (DMSO, vehicle) or STO-609 (10 μM, Tocris) for 2 min before the addition of the thrombin (+/−0.03 U/ml). CaCl2 2 mM was added prior to the agonists.
To evaluate the potential implication of CaMKKβ in platelet aggregation, washed human platelets were pre-incubated for 2 min with 10 μM STO-609, prior to treatment with thrombin or ADP.

The test system of assay [3] is Ser79 acetyl-CoA carboxylase (ACC) phosphorylation in human platelets. Kind of assay: Western blot of phosphorylated (Ser79) ACC in human platelets. Particulars: 10 μM STO-609, 0.1 U/ml thrombin. In general terms: In western blotting, separated proteins are transferred to a membrane and probed.
Assay [4] concerns myosin light chain (MLC) Ser 19 phosphorylation. Kind of assay: Western blot of MLC Ser19 phosphorylation in human platelets. The following applies: 0.1 U/ml thrombin, pre-incubation with STO-609. As to the method:
Washed human platelets (used in in vitro studies). Platelets were obtained from adult healthy volunteers in accordance with the Ethics Commission of our institution (Commission d'Ethique Biomédicale Hospitalo-Facultaire, Université catholique de Louvain). Whole blood was collected with butterfly needle 21G into Sodium Citrate 1:10 solution (S-monovette). Platelet-rich plasma (PRP) was obtained by 15 min centrifugation at 330 g. The platelets pellet was then washed in Tyrode modified buffer (135 mM NaCl, 12 mM NaHCO3, 1 mM Sodium Citrate, 2.9 mM KCl, 0.3 mM Na2HPO4, 1 mM MgCl2, 5 mM D-glucose, 10 mM Hepes, 0.35% bovine serum albumin (BSA), pH 7.4 at 37° C.) and resuspended to a density of 2.5 10^5 platelets/μl for the measurement of intracellular Ca^2+ or platelet aggregation. […]
Proteins were separated as described (Miranda et al. 2010. J Clin Invest 103(6): 879-887). […] Bound antibodies were detected by enhanced chemiluminescence (Thermofisher). […] Band intensities were quantified by scanning and processing image intensities with the program ImageJ (1.33 for Mac OS X). The quantification of immunoblots presented in results was obtained after normalization using the internal loading control.

For assay [5], the system named is TXB2 formation in human platelets. Kind of assay: Thromboxane B2 assay in platelet supernatants. Particulars: 10 μM STO-609, 0.1 U/ml thrombin for 5 min. On the procedure:
After 2 min pre-incubation with 10 μM STO-609 or DMSO, washed platelets were treated with 0.1 U/ml thrombin for 5 min. Negative controls corresponded to platelets activated by thrombin in the presence of 1 mM acetylsalicylic acid (ASA). Platelet suspensions were pelleted (quick speed), and TXB2 in the supernatants was assayed according to the manufacturers instructions (Enzo Life Sciences).

Molecules are shown by their SMILES. “Also recorded” adds a separate entry of the source.

For the compound `O=C(O)c1ccc2c3c1cccc3c(=O)n1c3ccccc3nc21` [STO-609], in assay [1], the “rise in Ca2+ concentration in response to thrombin” value is given as “did not modify”. Besides, in assay [2], the “CD62P detection per platelet in response to thrombin (α-granule release)” value was “significantly inhibited; also recorded: prevents”. In addition, the “platelet aggregation caused by ADP (effect in words)” value in the assay on washed human platelets (20 μM ADP, 10 μM STO-609) is on record as “not inhibited”. Further, the “thrombin-induced platelet aggregation, % of aggregation” value in the assay with washed human platelets (0.025 U/ml thrombin + 10 μM STO-609, 2 min pre-incubation) was found to be 11±4%. The “thrombin-induced platelet aggregation (effect in words)” value with washed human platelets (0.025 U/ml thrombin, 10 μM STO-609) is “significantly inhibited; also recorded: prevents”. Also, in assay [3], the “AMPK activation, as judged by phosphorylation of downstream Ser79 acetyl-CoA carboxylase (ACC)” value was “markedly reduced”. In addition, the “thrombin-induced MLC phosphorylation, effect of pre-incubation” value in assay [4] was “decreased significantly; also recorded: prevents”. For the same compound, in assay [5], the “thrombin-induced TXB2 formation” value is “not affect”.

These data come from patent US20140309171A1, “MARKER FOR BLOOD COAGULATION” (Universite Catholique De Louvain, priority 2011, published 2014).
